Test results: patent US11141413B2, “Method of treating renal cell carcinoma using N-(4-(6,7-dimethoxyquinolin-4-yloxy)phenyl)-N′-(4-fluorophenyl)cyclopropane-1,1-dicarboxamide, (2S)-hydroxybutanedioate” (Exelixis, Inc., priority 2016, dated 2021)
Values joined by “and” are separate entries in the source; they are usually repeats but may differ in a detail not shown here. Equal values may be shown once.

Tested on: advanced renal cell carcinoma (RCC)
Test: METEOR (Study 1) randomized phase 3 trial, cabozantinib vs everolimus: PFS, OS, ORR
Format: in vivo, human
Details: for ORR (95% CI), IRC / ORR (95% CI), Investigator assessed / Progressive disease, IRC / Progressive disease, Investigator assessed / Stable disease, IRC / Stable disease, Investigator assessed / Confirmed ORR (95% CI), IRC / Confirmed ORR (95% CI), Investigator assessed / Confirmed responses (95% CI), IRC / Confirmed responses (95% CI), Investigator assessed: RECIST 1.1; for PFS event: all randomized
[1] = Patients With High Tumor Burden
[2] = Primary TWT analysis (first 375), cut-off May 2015, min follow-up 11 mo, 247 PFS events
[3] = Pts with Bone and Visceral Metastases
[4] = Supportive analysis, all events (all 658), cut-off May 2015, min follow-up 6 mo, 394 PFS events
[5] = Traditional analysis (all 658), cut-off November 2014, min follow-up 2 days, 247 PFS events
[6] = all 658 randomized, per IRC, cutoff May 22, 2015
[7] = earlier cutoff at 247 events in the ITT Pop (traditional design)
[8] = high tumor burden (≥median SoD)
[9] = patients with bone and visceral metastases
[10] = patients with visceral (lung or liver) metastases
[11] = pazopanib only prior VEGFR TKI subgroup
[12] = prior therapy subgroup Anti-PD-1/PD-L1
[13] = prior therapy subgroup Pazopanib Only
[14] = prior therapy subgroup Sunitinib Only
[15] = sunitinib only prior VEGFR TKI subgroup

COc1cc2nccc(Oc3ccc(NC(=O)C4(C(=O)Nc5ccc(F)cc5)CC4)cc3)c2cc1OC [cabozantinib]
Kaplan-Meier estimate of % of patients alive (6 Months landmark): 91% (87%, 93%)
Kaplan-Meier estimate of % of patients alive (12 Months landmark): 73%
Kaplan-Meier estimate of % of patients alive (12 Months landmark, listed as Cabozantinib): 73% (68%, 79%)
Kaplan-Meier estimate of % of patients alive (18 Months landmark): 58%
Kaplan-Meier estimate of % of patients alive (18 Months landmark, listed as Cabozantinib): 58% (53%, 64%)
Kaplan-Meier estimate of % of patients alive (24 Months landmark): 48% (39%, 55%)
OS HR, planned interim analysis, cabozantinib vs everolimus (49% information fraction, all 658 randomized, at time of primary PFS analysis): 0.67
ORR (95% CI), IRC (Asia Pacific): 28 (15-45) %
ORR (95% CI), Investigator assessed (Asia Pacific): 36 (21-53) %
Progressive disease, IRC (Asia Pacific): 10%
Progressive disease, Investigator assessed (Asia Pacific): 0%
Stable disease, IRC (Asia Pacific): 62%
Stable disease, Investigator assessed (Asia Pacific): 64%
ORR (95% CI), IRC (Europe): 15 (10-21) %
ORR (95% CI), Investigator assessed (Europe): 22 (16-29) %
Progressive disease, IRC (Europe): 10%
Progressive disease, Investigator assessed (Europe): 8%
Stable disease, IRC (Europe): 69%
Stable disease, Investigator assessed (Europe): 65%
Median OS (ITT, all 658 randomized, cutoff Dec. 31, 2015): 21.4 months
Objective response rate (confirmed, partial responses only) per IRC (ITT, all 658 randomized, cutoff May 22, 2015): 17%
ORR (95% CI), IRC (North America): 16 (10-24) %
ORR (95% CI), Investigator assessed (North America): 20 (13-29) %
Progressive disease, IRC (North America): 17%
Progressive disease, Investigator assessed (North America): 13%
Stable disease, IRC (North America): 62%
Stable disease, Investigator assessed (North America): 62%
Confirmed ORR (95% CI), IRC [1]: 18 (12-24) %
Confirmed ORR (95% CI), Investigator assessed [1]: 21 (15-28) %
Progressive disease, IRC [1]: 8%
Progressive disease, Investigator assessed [1]: 7%
Stable disease, IRC [1]: 68%
Stable disease, Investigator assessed [1]: 67%
Confirmed ORR (95% CI), IRC (Patients With Low Tumor Burden): 17 (12-24) %
Confirmed ORR (95% CI), Investigator assessed (Patients With Low Tumor Burden): 27 (20-34) %
Progressive disease, IRC (Patients With Low Tumor Burden): 16%
Progressive disease, Investigator assessed (Patients With Low Tumor Burden): 10%
Stable disease, IRC (Patients With Low Tumor Burden): 62%
Stable disease, Investigator assessed (Patients With Low Tumor Burden): 59%
Median PFS [2]: 7.4 mo
PFS HR, cabozantinib vs everolimus [2]: 0.58
Confirmed responses (95% CI), IRC (Pts with Bone Metastases): 17 (9-27) %
Confirmed responses (95% CI), Investigator assessed (Pts with Bone Metastases): 27 (18-39) %
Progressive disease, IRC (Pts with Bone Metastases): 13%
Progressive disease, Investigator assessed (Pts with Bone Metastases): 9%
Stable disease, IRC (Pts with Bone Metastases): 70%
Stable disease, Investigator assessed (Pts with Bone Metastases): 64%
Confirmed responses (95% CI), IRC [3]: 20 (11-32) %
Confirmed responses (95% CI), Investigator assessed [3]: 30 (19-43) %
Progressive disease, IRC [3]: 15%
Progressive disease, Investigator assessed [3]: 10%
Stable disease, IRC [3]: 65%
Stable disease, Investigator assessed [3]: 60%
Confirmed responses (95% CI), IRC (Pts without Bone Metastases): 17 (13-23) %
Confirmed responses (95% CI), Investigator assessed (Pts without Bone Metastases): 23 (18-28) %
Progressive disease, IRC (Pts without Bone Metastases): 12%
Progressive disease, Investigator assessed (Pts without Bone Metastases): 9%
Stable disease, IRC (Pts without Bone Metastases): 64%
Stable disease, Investigator assessed (Pts without Bone Metastases): 83%
Median PFS [4]: 7.4 mo
PFS HR, cabozantinib vs everolimus [4]: 0.51
Median PFS [5]: 6 mo
PFS HR, cabozantinib vs everolimus [5]: 0.48
Objective response rate per investigator (all 658 randomized, cutoff May 22, 2015): 24%
Median duration of PFS [6]: 7.4 months
PFS HR, cabozantinib vs everolimus [6]: 0.51 and 0.52
Median duration of PFS (all 658 randomized, per IRC, cutoff May 22, 2015, listed as Cabozantinib): 7.4 (6.6-9.1) months and 7.4 months
PFS HR, cabozantinib vs everolimus (all 658 randomized, per investigator): 0.54
Median duration of PFS (all 658 randomized, per investigator, cutoff May 22, 2015): 7.4 (7.3-7.8) months
PFS HR, cabozantinib vs everolimus (all 658 randomized, per investigator, listed as Cabozantinib): 0.54 (0.45-0.66)
PFS event (per IRC, cutoff May 22, 2015): 180 (55) ^ n (%)
PFS event (per investigator, cutoff May 22, 2015): 196 (59) ^ n (%)
Median PFS, alternative analysis [7]: 6 mo
PFS HR, alternative analysis [7]: 0.49 and 0.48
Median PFS (first 375 randomized, per independent radiology review committee (IRC)): 7.4 months
Median OS (high MET tumor expression): 22.0 months
OS HR, cabozantinib vs everolimus (high MET tumor expression): 0.55
Median OS (high tumor burden): 18.1 mo
OS HR, cabozantinib vs eve [8]: 0.60
PFS HR, cabozantinib vs eve [8]: 0.41
Patients with reduction in measurable tumor lesion size (in vivo): 75%
Median OS (low MET tumor expression): 20.8 months
OS HR, cabozantinib vs everolimus (low MET tumor expression): 0.72
Median OS (low tumor burden): 22.0 mo
OS HR, cabozantinib vs eve (low tumor burden (<median SoD)): 0.76
PFS HR, cabozantinib vs eve (low tumor burden (<median SoD)): 0.63
Median OS (patients enrolled in Canada): 20.8 mo
Median PFS (patients enrolled in Canada): 7.4 mo
ORR (patients enrolled in Canada): 17%
OS HR, cabo vs eve (patients enrolled in Canada): 0.33
PFS HR, cabo vs eve (patients enrolled in Canada): 0.40
PFS HR, cabozantinib vs everolimus (patients with bone + visceral metastases): 0.26
Median PFS [9]: 5.6 mo
ORR [9]: 20%
OS HR, cabozantinib vs everolimus [9]: 0.45
Median PFS (patients with bone metastases): 7.4 mo
ORR (patients with bone metastases): 17%
OS HR, cabozantinib vs everolimus (patients with bone metastases): 0.54
PFS HR, cabozantinib vs everolimus (patients with bone metastases at baseline): 0.33
OS HR, cabozantinib vs eve [10]: 0.66
PFS HR, cabozantinib vs eve [10]: 0.48
OS HR, cabozantinib vs everolimus (pazopanib as only prior VEGFR TKI): 0.66
Median OS [11]: 22.0 months
Median PFS [11]: 7.4 months
Best overall response: confirmed complete response (per IRC): 0 n
Best overall response: confirmed partial response (per IRC): 57 n
Best overall response: confirmed complete response (per investigator): 0 n
Confirmed ORR (95% CI), tumor response by IRC [12]: 22 (6-48) %
Confirmed ORR (95% CI), tumor response by investigator [12]: 22 (6-48) %
Progressive disease, tumor response by IRC [12]: 11%
Progressive disease, tumor response by investigator [12]: 11%
Stable disease, tumor response by IRC [12]: 50%
Stable disease, tumor response by investigator [12]: 56%
Confirmed ORR (95% CI), tumor response by IRC [13]: 19 (12-29) %
Confirmed ORR (95% CI), tumor response by investigator [13]: 31 (21-41) %
Progressive disease, tumor response by IRC [13]: 14%
Progressive disease, tumor response by investigator [13]: 3%
Stable disease, tumor response by IRC [13]: 65%
Stable disease, tumor response by investigator [13]: 64%
Confirmed ORR (95% CI), tumor response by IRC [14]: 16 (11-24) %
Confirmed ORR (95% CI), tumor response by investigator [14]: 23 (16-31) %
Progressive disease, tumor response by IRC [14]: 12%
Progressive disease, tumor response by investigator [14]: 11%
Stable disease, tumor response by IRC [14]: 66%
Stable disease, tumor response by investigator [14]: 60%
ORR (region Asia Pacific (AP)): 28%
OS HR, cabozantinib vs eve (region Asia Pacific (AP)): 0.49
PFS HR, cabozantinib vs eve (region Asia Pacific (AP)): 0.43
ORR (region Europe (EU)): 15%
OS HR, cabozantinib vs eve (region Europe (EU)): 0.67
PFS HR, cabozantinib vs eve (region Europe (EU)): 0.54
ORR (region North America (NA)): 16%
OS HR, cabozantinib vs eve (region North America (NA)): 0.79
PFS HR, cabozantinib vs eve (region North America (NA)): 0.50
Deaths (second interim analysis of OS, of randomized patients): 42%
OS HR, cabozantinib vs everolimus (sunitinib as only prior VEGFR TKI): 0.66
Median OS [15]: 21.4 months
Median PFS [15]: 9.1 months
